Laboratory results from paper PMC7227612 (Clinical cancer research : an official journal of the …, 2009).
Marks after values point to notes of the source that are not given here.

What was measured:
[1] = system: phosphorylated GSK3β (pGSK3β); experiment: pGSK3β in patient peripheral blood mononuclear cells; assay type: in vivo, human
glioma cells = experiment: Cytotoxic activity against glioma cells in vitro; assay type: cell-based; details: Supplementary Fig. S1, concentration dependent
[2] = system: recurrent malignant glioma; experiment: Tumor response; assay type: in vivo, human
[3] = Toxicity and dose limiting toxicity; assay type: in vivo
[4] = Steady-state plasma pharmacokinetics, group A; assay type: in vivo, human; details: for Cav,ss: geometric mean (%CV); for Cmax / Tmax: human, plasma, oral
GSK3β = experiment: Inhibition of GSK3β phosphorylation and activity in glioma cells in vitro; assay type: cell-based; details: Supplementary Fig. S1, concentration dependent
[5] = Steady-state plasma pharmacokinetics, group B; assay type: in vivo, human; details: for Cmax / Tmax: human, plasma, oral; for Cmax: Cmax,ss
[6] = Group B, 500 mg twice daily, Patient 2
[7] = Group B, 1,000 mg daily, Patient 1
[8] = Group B, 1,000 mg daily, Patient 2
[9] = 500 mg, Group B, 500 mg twice daily, Patient 2
[10] = 1000 mg daily, Group B, 1,000 mg daily, Patient 1
[11] = 1000 mg daily, Group B, 1,000 mg daily, Patient 2

## Cn1cc(C2=C(c3cn(C4CCN(Cc5ccccn5)CC4)c4ccccc34)C(=O)NC2=O)c2ccccc21 [Enzastaurin]
[1]; five patients who achieved disease control
  pGSK3β levels at steady state vs baseline: decreased from baseline
[1]; one patient with progressive disease, after the first 3 weeks of therapy
  pGSK3β at steady state vs baseline: increased
[1]; two patients, Fig. 3B
  Kinetics of pGSK3β in peripheral blood mononuclear cells after administration: decrease in a time dependent manner
Glioma cells
  Cytotoxicity: direct cytotoxic activity
[2]; 19 patients evaluable
  Complete response (patients): 1
  Partial response (patients): 1
[2]; 19 patients evaluable for radiographic response
  Objective responses: 11%
[2]; entire study group
  Median overall survival: 5.7 months
  Median progression-free survival: 1.4 months
[2]; one patient, Fig. 2
  Duration complete response maintained on therapy: > 3 y
[3]; human, in vivo
  Dose-limiting toxicities: thrombocytopenia and prolonged QTc
  Elevated ALT, Grade 1-2: 5 (23%)
  Elevated ALT, Grade 3-4: 1
  Elevated AST, Grade 1-2: 9 (41%)
  Elevated AST, Grade 3-4: 0
  Hematuria, Grade 1-2: 1
  Hematuria, Grade 3-4: 0
  Hypermagnesemia, Grade 1-2: 1
  Hypermagnesemia, Grade 3-4: 0
  Intracranial hemorrhage, Grade 1-2: 0
  Intracranial hemorrhage, Grade 3-4: 0
  Nausea, Grade 1-2: 1
  Nausea, Grade 3-4: 0
  Proteinuria, Grade 1-2: 1
  Proteinuria, Grade 3-4: 0
  QTc prolongation, Grade 1-2: 5 (23%)
  QTc prolongation, Grade 3-4: 2 (9%) ^*
  Relationship between QTcB changes from baseline and plasma concentrations: no significant relationship
  Thrombocytopenia, Grade 1-2: 6 (27%)
  Thrombocytopenia, Grade 3-4: 5 (23%)
[3]; human, in vivo, 6 wk
  Patients with dose limiting grade 3 thrombocytopenia: 2
[3]; number of patients, N = 22
  Elevated ALT, Grade 5: 0
  Elevated AST, Grade 5: 0
  Hematuria, Grade 5: 0
  Hypermagnesemia, Grade 5: 0
  Nausea, Grade 5: 0
  Proteinuria, Grade 5: 0
  QTc prolongation, Grade 5: 0
  Thrombocytopenia, Grade 5: 0
[3]; number of patients, N = 22, in the setting of grade 3 thrombocytopenia
  Intracranial hemorrhage, Grade 5: 1 ^†
[4]; DL 1, 800 mg daily, n = 12
  Cav,ss: 1,130 (89) nmol/L
[4]; DL-1, 250 mg twice daily, n = 3
  Cav,ss: 1,040 (124) nmol/L
[4]; DL-1, 500 mg daily, n = 5
  Cav,ss: 472 (109) nmol/L
[4]; 250 mg
  Cmax: 1390 nM
  Tmax: 6.03 h
[4]; 400 mg
  Cmax: 2710 nM
  Tmax: 4.03 h
[4]; 500 mg
  Cmax: 979 nM
  Tmax: 2.08 h
[4]; 800 mg
  Tmax: 4 h
GSK3β
  Phosphorylation and activity of GSK3β: inhibits
[5]; [6]
  CL/F: 27 L/h
  Cav,ss: 3,050 nmol/L
[5]; [7]
  CL/F: 60 L/h
  Cav,ss: 1,340 nmol/L
[5]; [8]
  CL/F: 60 L/h
  Cav,ss: 1,350 nmol/L
[5]; [9]
  Cmax: 4.09 µM
  Tmax: 4 h
[5]; [10]
  Cmax: 3.01 µM
  Tmax: 4 h
[5]; [11]
  Cmax: 2.73 µM
  Tmax: 2 h
